The values below come from paper PMC4734333, “Structural characterisation of human galectin-4 N-terminal carbohydrate recognition domain in complex with glycerol, lactose, 3′-sulfo-lactose, and 2′-fucosyllactose” (Scientific Reports, 2016).

Common to all, as to format: binding
The target in experiment [1] is T1, galectin-4N (human galectin-4 N-terminal CRD) (Homo sapiens, UniProt P56470).
T1 construct: gene LGALS4; N-terminal CRD (galectin-4N)
T1 sequence (P56470 1-154 limits assumed): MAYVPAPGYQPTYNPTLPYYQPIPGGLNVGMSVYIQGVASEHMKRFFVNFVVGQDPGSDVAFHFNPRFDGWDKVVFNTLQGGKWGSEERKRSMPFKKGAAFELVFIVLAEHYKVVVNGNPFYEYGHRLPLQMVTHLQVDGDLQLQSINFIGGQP
As to the kind of experiment: competitive fluorescence anisotropy. Background: Fluorescence polarisation rises when a labelled molecule tumbles more slowly, as on binding a larger partner.

The target of experiment [2] is T2, galectin-4N (human galectin-4 N-terminal CRD) (Homo sapiens, UniProt P56470).
T2 construct: gene LGALS4
T2 sequence (P56470 1-154): T1 sequence (P56470 1-154 limits assumed)
As to the kind of experiment: X-ray crystal structure ([…] Å) and competitive fluorescence anisotropy.

Experiment [3] has as its target T2, galectin-4N (human galectin-4 N-terminal CRD). The experiment is described as above. This is another data set of the same source.
The target is the same in experiment [4]. The description is as above. This is another data set of the same source.

The structures appear in SMILES notation.

For `CC(=O)N[C@H]1[C@@H](O[C@H]2[C@@H](O)[C@@H](CO)O[C@@H](O[C@H]3[C@H](O)[C@@H](O)C(O)O[C@@H]3CO)[C@@H]2O[C@@H]2O[C@@H](C)[C@@H](O)[C@@H](O)[C@@H]2O)O[C@H](CO)[C@H](O)[C@@H]1O` (stereo partly shown) [A-tetrasaccharide], binding in experiment [1] was characterised by a dissociation constant (Kd) of 164 µM.
For the compound `O=S(=O)(O)O[C@H]1[C@@H](O)[C@@H](CO)O[C@@H](O[C@H]2[C@H](O)[C@@H](O)C(O)O[C@@H]2CO)[C@@H]1O` (stereo partly shown) [3′SuL, lactose-3′-sulfate], in experiment [2], the equilibrium dissociation constant (Kd) was 510 µM.
In experiment [3], `OC[C@H]1O[C@@H](O[C@H]2[C@H](O)[C@@H](O)C(O)O[C@@H]2CO)[C@H](O)[C@@H](O)[C@H]1O` (stereo partly shown) [lactose] displayed a Kd of 1300 µM.
In experiment [4], `C[C@@H]1O[C@@H](O[C@H]2[C@H](O[C@H]3[C@H](O)[C@@H](O)C(O)O[C@@H]3CO)O[C@H](CO)[C@H](O)[C@@H]2O)[C@@H](O)[C@H](O)[C@@H]1O` (stereo partly shown) [2′FL, 2′-fucosyllactose] showed an equilibrium dissociation constant (Kd) of 380 µM.

One may read the Kd as a measure of binding affinity in units of concentration. A higher Kd goes with weaker binding.
